# Assay results published in ChEMBL document CHEMBL1201862, “PubChem BioAssay data set” (2004).
#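 1) Cells in 96-well plates. 2) Compound, 48 h, 5 concentrations. 3) Linear interpolation between surrounding doses. 4) Unreached endpoint = highest concentration. The concentration for 50% growth inhibition is given as GI50.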 The source made the active and inactive calls. Cut-off read from the data, not from the text of the source: active = GI50 up to about 1.1 µM and inactive = higher.
# Experiments:
# Assay in all cases: growth of human tumour cells (NCI), 48 h
# 786-0 = system: 786-0
# A498 = system: A498
# A549 = system: A549
# ACHN = system: ACHN
# BT-549 = system: BT-549
# CAKI-1 = system: CAKI-1
# CCRF-CEM = system: CCRF-CEM
# COLO 205 = system: COLO 205
# DU-145 = system: DU-145
# EKVX = system: EKVX
# HCC 2998 = system: HCC 2998
# HCT-116 = system: HCT-116
# HCT-15 = system: HCT-15
# HL-60 = system: HL-60
# HOP-62 = system: HOP-62
# HOP-92 = system: HOP-92
# HT-29 = system: HT-29
# Hs-578T = system: Hs-578T
# IGROV-1 = system: IGROV-1
# K562 = system: K562
# KM12 = system: KM12
# LOX IMVI = system: LOX IMVI
# M14 = system: M14
# MCF7 = system: MCF7
# MDA-MB-231 = system: MDA-MB-231
# MDA-MB-435 = system: MDA-MB-435
# MDA-N = system: MDA-N
# MOLT-4 = system: MOLT-4
# Malme-3M = system: Malme-3M
# NCI-H226 = system: NCI-H226
# NCI-H23 = system: NCI-H23
# NCI-H522 = system: NCI-H522
# NCI/ADR-RES = system: NCI/ADR-RES
# OVCAR-3 = system: OVCAR-3
# OVCAR-4 = system: OVCAR-4
# OVCAR-5 = system: OVCAR-5
# OVCAR-8 = system: OVCAR-8
# PC-3 = system: PC-3
# RPMI-8226 = system: RPMI-8226
# RXF 393 = system: RXF 393
# SF-268 = system: SF-268
# SF-295 = system: SF-295
# SF-539 = system: SF-539
# SK-MEL-2 = system: SK-MEL-2
# SK-MEL-5 = system: SK-MEL-5
# SK-OV-3 = system: SK-OV-3
# SN12C = system: SN12C
# SNB-19 = system: SNB-19
# SNB-75 = system: SNB-75
# SR = system: SR
# SW-620 = system: SW-620
# T47D = system: T47D
# TK-10 = system: TK-10
# U-251 = system: U-251
# UACC-257 = system: UACC-257
# UACC-62 = system: UACC-62
# UO-31 = system: UO-31
# NCI-H460 = system: NCI-H460
# SK-MEL-28 = system: SK-MEL-28
smiles,measurement,setting,value
O=C1NCCN1/N=C/c1c(Cl)n(-c2ccccc2)c2ccccc12,GI50,786-0,26.1 µM (inactive)
same,GI50,A498,17.5 µM (inactive)
same,GI50,A549,23.9 µM (inactive)
same,GI50,ACHN,23.9 µM (inactive)
same,GI50,BT-549,15.4 µM (inactive)
same,GI50,CAKI-1,17.3 µM (inactive)
same,GI50,CCRF-CEM,29 µM (inactive)
same,GI50,COLO 205,14.3 µM (inactive)
same,GI50,DU-145,14.6 µM (inactive)
same,GI50,EKVX,25.5 µM (inactive)
same,GI50,HCC 2998,17.8 µM (inactive)
same,GI50,HCT-116,19.5 µM (inactive)
same,GI50,HCT-15,17.6 µM
same,GI50,HL-60,27.4 µM (inactive)
same,GI50,HOP-62,94.4 µM (inactive)
same,GI50,HOP-92,23.6 µM (inactive)
same,GI50,HT-29,17.4 µM (inactive)
same,GI50,Hs-578T,13.4 µM (inactive)
same,GI50,IGROV-1,17.2 µM (inactive)
same,GI50,K562,24.5 µM (inactive)
same,GI50,KM12,15.7 µM (inactive)
same,GI50,LOX IMVI,13.5 µM (inactive)
same,GI50,M14,17.5 µM (inactive)
same,GI50,MCF7,22.1 µM (inactive)
same,GI50,MDA-MB-231,13.6 µM (inactive)
same,GI50,MDA-MB-435,12.4 µM (inactive)
same,GI50,MDA-N,9.25 µM (inactive)
same,GI50,MOLT-4,36.9 µM (inactive)
same,GI50,Malme-3M,16.6 µM (inactive)
same,GI50,NCI-H226,20.4 µM (inactive)
same,GI50,NCI-H23,18.5 µM (inactive)
same,GI50,NCI-H522,16.1 µM (inactive)
same,GI50,NCI/ADR-RES,19.5 µM (inactive)
same,GI50,OVCAR-3,66.4 µM (inactive)
same,GI50,OVCAR-4,48.1 µM (inactive)
same,GI50,OVCAR-5,44.1 µM (inactive)
same,GI50,OVCAR-8,22.3 µM (inactive)
same,GI50,PC-3,29 µM (inactive)
same,GI50,RPMI-8226,22.4 µM (inactive)
same,GI50,RXF 393,> 10 µM (inactive)
same,GI50,SF-268,20.1 µM (inactive)
same,GI50,SF-295,29.4 µM (inactive)
same,GI50,SF-539,10.4 µM (inactive)
same,GI50,SK-MEL-2,25 µM (inactive)
same,GI50,SK-MEL-5,15.5 µM (inactive)
same,GI50,SK-OV-3,46.2 µM (inactive)
same,GI50,SN12C,18.7 µM (inactive)
same,GI50,SNB-19,23.1 µM (inactive)
same,GI50,SNB-75,21.1 µM (inactive)
same,GI50,SR,28 µM (inactive)
same,GI50,SW-620,21.1 µM (inactive)
same,GI50,T47D,15.2 µM (inactive)
same,GI50,TK-10,14.8 µM (inactive)
same,GI50,U-251,21.7 µM (inactive)
same,GI50,UACC-257,22.4 µM (inactive)
same,GI50,UACC-62,16 µM (inactive)
same,GI50,UO-31,19.1 µM (inactive)
CCOC(=O)C(=O)C(CCC(=O)c1ccc2ccccc2c1O)C(=O)OCC (configuration not stated),GI50,786-0,> 100 µM (inactive)
same,GI50,A498,> 100 µM (inactive)
same,GI50,A549,> 100 µM (inactive)
same,GI50,ACHN,> 100 µM (inactive)
same,GI50,BT-549,> 100 µM (inactive)
same,GI50,CAKI-1,> 100 µM (inactive)
same,GI50,CCRF-CEM,> 100 µM (inactive)
same,GI50,COLO 205,> 100 µM (inactive)
same,GI50,DU-145,> 100 µM (inactive)
same,GI50,EKVX,> 100 µM (inactive)
same,GI50,HCC 2998,> 100 µM (inactive)
same,GI50,HCT-116,> 100 µM (inactive)
same,GI50,HCT-15,> 100 µM
same,GI50,HL-60,> 100 µM (inactive)
same,GI50,HOP-92,> 100 µM (inactive)
same,GI50,HT-29,> 100 µM (inactive)
same,GI50,Hs-578T,> 100 µM (inactive)
same,GI50,IGROV-1,> 100 µM (inactive)
same,GI50,K562,> 100 µM (inactive)
same,GI50,KM12,> 100 µM (inactive)
same,GI50,LOX IMVI,> 100 µM (inactive)
same,GI50,M14,> 100 µM (inactive)
same,GI50,MCF7,> 100 µM (inactive)
same,GI50,MDA-MB-231,> 100 µM (inactive)
same,GI50,MDA-MB-435,> 100 µM (inactive)
same,GI50,MDA-N,> 100 µM (inactive)
same,GI50,MOLT-4,> 100 µM (inactive)
same,GI50,Malme-3M,> 100 µM (inactive)
same,GI50,NCI-H226,38.5 µM (inactive)
same,GI50,NCI-H23,> 100 µM (inactive)
same,GI50,NCI-H460,> 100 µM (inactive)
same,GI50,NCI-H522,> 100 µM (inactive)
same,GI50,NCI/ADR-RES,> 100 µM (inactive)
same,GI50,OVCAR-3,> 100 µM (inactive)
same,GI50,OVCAR-4,> 100 µM (inactive)
same,GI50,OVCAR-5,> 100 µM (inactive)
same,GI50,OVCAR-8,> 100 µM (inactive)
same,GI50,PC-3,> 100 µM (inactive)
same,GI50,RPMI-8226,> 100 µM (inactive)
same,GI50,RXF 393,> 100 µM (inactive)
same,GI50,SF-268,> 100 µM (inactive)
same,GI50,SF-295,> 100 µM (inactive)
same,GI50,SF-539,> 100 µM (inactive)
same,GI50,SK-MEL-28,> 100 µM (inactive)
same,GI50,SK-MEL-2,> 100 µM (inactive)
same,GI50,SK-MEL-5,> 100 µM (inactive)
same,GI50,SK-OV-3,> 100 µM (inactive)
same,GI50,SN12C,> 100 µM (inactive)
same,GI50,SNB-19,> 100 µM (inactive)
same,GI50,SNB-75,> 100 µM (inactive)
same,GI50,SR,> 100 µM (inactive)
same,GI50,SW-620,> 100 µM (inactive)
same,GI50,T47D,> 100 µM (inactive)
same,GI50,U-251,> 100 µM (inactive)
same,GI50,UACC-257,> 100 µM (inactive)
same,GI50,UACC-62,> 100 µM (inactive)
same,GI50,UO-31,> 100 µM (inactive)
N#CC1=C(N)OC(c2ccc([N+](=O)[O-])cc2)C1(C#N)C#N (configuration not stated),GI50,786-0,9.66 µM (inactive)
same,GI50,A498,14.4 µM (inactive)
same,GI50,A549,24.4 µM (inactive)
same,GI50,ACHN,10.2 µM (inactive)
same,GI50,BT-549,17.1 µM (inactive)
same,GI50,CAKI-1,0.785 µM (active)
same,GI50,CCRF-CEM,2.57 µM (inactive)
same,GI50,COLO 205,5.94 µM (inactive)
same,GI50,DU-145,17.9 µM (inactive)
same,GI50,EKVX,14.2 µM (inactive)
same,GI50,HCC 2998,9.46 µM (inactive)
same,GI50,HCT-116,9.77 µM (inactive)
same,GI50,HCT-15,10.5 µM
same,GI50,HL-60,3.46 µM (inactive)
same,GI50,HOP-62,20.7 µM (inactive)
same,GI50,HOP-92,7.94 µM (inactive)
same,GI50,HT-29,9.14 µM (inactive)
same,GI50,Hs-578T,25.9 µM (inactive)
same,GI50,IGROV-1,15.6 µM (inactive)
same,GI50,K562,37.8 µM (inactive)
same,GI50,KM12,> 33.7 µM (inactive)
same,GI50,LOX IMVI,8.49 µM (inactive)
same,GI50,M14,16.7 µM (inactive)
same,GI50,MCF7,15.6 µM (inactive)
same,GI50,MDA-MB-231,16.4 µM (inactive)
same,GI50,MDA-MB-435,17 µM (inactive)
same,GI50,MDA-N,9.18 µM (inactive)
same,GI50,MOLT-4,33.7 µM (inactive)
same,GI50,Malme-3M,10.2 µM (inactive)
same,GI50,NCI-H226,18.3 µM (inactive)
same,GI50,NCI-H23,15.3 µM (inactive)
same,GI50,NCI-H522,6.62 µM (inactive)
same,GI50,NCI/ADR-RES,19.6 µM (inactive)
same,GI50,OVCAR-3,> 10 µM (inactive)
same,GI50,OVCAR-4,17.8 µM (inactive)
same,GI50,OVCAR-5,18.7 µM (inactive)
same,GI50,OVCAR-8,17.5 µM (inactive)
same,GI50,PC-3,17.1 µM (inactive)
same,GI50,RPMI-8226,7.78 µM (inactive)
same,GI50,RXF 393,7.23 µM (inactive)
same,GI50,SF-268,23.3 µM (inactive)
same,GI50,SF-295,33.7 µM (inactive)
same,GI50,SF-539,15.1 µM (inactive)
same,GI50,SK-MEL-28,9.4 µM (inactive)
same,GI50,SK-MEL-2,14.6 µM (inactive)
same,GI50,SK-MEL-5,9.48 µM (inactive)
same,GI50,SK-OV-3,26.2 µM (inactive)
same,GI50,SN12C,14.5 µM (inactive)
same,GI50,SNB-19,22.4 µM (inactive)
same,GI50,SNB-75,20.6 µM (inactive)
same,GI50,SR,3.97 µM (inactive)
same,GI50,SW-620,13.2 µM (inactive)
same,GI50,T47D,18.4 µM (inactive)
same,GI50,TK-10,13.2 µM (inactive)
same,GI50,U-251,25.4 µM (inactive)
same,GI50,UACC-257,13.1 µM (inactive)
same,GI50,UACC-62,8.71 µM (inactive)
same,GI50,UO-31,6.27 µM (inactive)
